The test system of experiment [1] is NCIH460 (lung) cells. Kind of experiment: Anti-cancer screen (MTT), NCIH460. In kind it is cell-based. The conditions noted are these: Homo sapiens, NCI-H460, NCIH460, 48 hours, MTT; for GI50: read-out: Cell growth inhibition NCIH460 (Lung) GI50; for LC50: read-out: Cell growth inhibition NCIH460 (Lung) LC50; for IC (TGI): read-out: Cell growth inhibition NCIH460 (Lung) TGI. Put shortly: (§1)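 Seeding at 5×10^4 cells/mL preceded 24 h culture, after which compounds diluted from DMSO stocks were added at final 0.01, 0.1, 1, 10 and 100 μM for 48 h. Viability was then read by MTT (3 h, 37 °C) at A570.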

The test system of experiment [2] is HCT 116 (colon) cells. The experiment in a line: Anti-cancer screen (MTT), HCT 116. The settings on record: Homo sapiens, HCT-116, HCT116, 48 hours, MTT; for GI50: read-out: Cell growth inhibition HCT116 (Colon) GI50; for CC50: read-out: Cell growth inhibition HCT116 (Colon) LC50; for IC (TGI): read-out: Cell growth inhibition HCT116 (Colon) TGI. In kind it is cell-based. Put shortly: as §1

For experiment [3], the system named is U251 (glioma) cells. Kind of experiment: Anti-cancer screen (MTT), U251. Format: cell-based. The settings on record: Homo sapiens, U-251, U251, 48 hours, MTT; for GI50: read-out: Cell growth inhibition U251 (Glioma) GI50; for LC50 (concentration giving 50% net cell kill relative to the time-zero cell count): read-out: Cell growth inhibition U251 (Glioma) LC50; for IC (TGI): read-out: Cell growth inhibition U251 (Glioma) TGI. Put shortly: as §1

For experiment [4], the system named is NCIH460, HCT116 and U251 cells. The experiment in a line: Anti-cancer screen, mean GI50 over cell lines. The conditions noted are these: mean over cell lines; read-out: Cell growth inhibition Mean GI50. Format: cell-based. Put shortly: as §1
In experiment [5] the test system is HDAC (Mouse Liver Extract). The experiment in a line: HDAC inhibition assay using Boc-Lys(Ac)-AMC substrate. In kind it is biochemical. The conditions noted are these: mouse liver enzyme. Put shortly:
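Boc-Lys(Ac)-AMC substrate incubated with mouse liver extract as HDAC source, 5 min preincubation then 30 min at 37° C. Trypsin stop solution added (37° C., 15-30 min) to release AMC, read at ex 360/em 460 nm; buffer-only and substrate-only wells as blanks.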

pIC50: −log10 of the molar value.

`COc1cc(/C=C(/C(=O)NCCCCCC(=O)NO)c2ccc(F)cc2)ccc1F` [Compound 91, 6-(2-(4-Fluorophenyl)-3-(4-fluoro-3-methoxyphenyl)acrylamido)-N-hydroxy hexanamide]: in experiment [1], the GI50 is 46 µM, the median lethal concentration (LC50) was more than 100 µM and the IC (TGI) was more than 100 µM. Also, in experiment [2], the GI50 came out at 19 µM, the CC50 was more than 100 µM and the IC (TGI) was more than 100 µM. For the same compound, in experiment [3], the GI50 amounted to 2 µM, the LC50 (concentration giving 50% net cell kill relative to the time-zero cell count) came out at 92 µM and the IC (TGI) stood at 30 µM. In experiment [4], the GI50 was found to be 22.3 µM. Also, in experiment [5], the “HDAC inhibition % (1 μM)” value stood at 80.8% and the “HDAC inhibition % (10 μM)” value was found to be 97.3%.

As to `COc1ccc(/C=C(/C(=O)NCc2ccc(C(=O)Nc3ccccc3N)cc2)c2ccccc2)cc1` [Compound 2, N-(2-Aminophenyl)-4-((3-(4-methoxyphenyl)-2-(phenyl)acrylamido)methyl)benzamide], in experiment [1], the GI50 is 2.9 µM, the median lethal concentration (LC50) is more than 100 µM and the IC (TGI) came to 8.2 µM. Further, in experiment [2], the GI50 stood at 4.4 µM, the CC50 was more than 100 µM and the IC (TGI) worked out at 9.4 µM. Moreover, in experiment [3], the GI50 stood at 7.6 µM, the LC50 (concentration giving 50% net cell kill relative to the time-zero cell count) was more than 100 µM and the IC (TGI) was determined as 39 µM. In experiment [4], the GI50 was found to be 5 µM. Moreover, in experiment [5], the “HDAC inhibition % (1 μM)” value was determined as 2.3% and the “HDAC inhibition % (10 μM)” value came to 6.8%.

`COC(=O)c1ccc(/C=C(/C(=O)NCc2ccc(C(=O)Nc3ccccc3N)cc2)c2ccccc2F)cc1` [Compound 34, N-(2-Aminophenyl)-4-((3-(4-carbmethoxyphenyl)-2-(2-fluorophenyl)acrylamido)methyl)benzamide]: in experiment [1], the concentration for 50% growth inhibition (GI50) stood at 10.1 µM, the LC50 is more than 100 µM and the IC (TGI) worked out at 90 µM. For the same compound, in experiment [2], the GI50 is 1.8 µM, the CC50 was more than 100 µM and the IC (TGI) came to 13 µM. In experiment [3], the GI50 stood at 0.7 µM, the LC50 (concentration giving 50% net cell kill relative to the time-zero cell count) was 65 µM and the IC (TGI) came to 23 µM. Further, in experiment [4], the GI50 turned out to be 4.2 µM. Besides, in experiment [5], the “HDAC inhibition % (1 μM)” value stood at 23.1% and the “HDAC inhibition % (10 μM)” value turned out to be 42.3%.

As to `CSc1ccc(/C=C(/C(=O)NCCCCCCC(=O)NO)c2ccc(F)cc2)cc1` [Compound 84, 7-(2-(4-Fluorophenyl)-3-(4-methylthiophenyl)acrylamido)-N-hydroxy heptanamide], in experiment [1], the GI50 stood at 2.3 µM, the LC50 is 70 µM and the IC (TGI) was found to be 21 µM. Moreover, in experiment [2], the GI50 was found to be 1.2 µM, the CC50 is more than 100 µM and the IC (TGI) is 21 µM. Also, in experiment [3], the 50% growth inhibitory concentration (GI50) turned out to be 4.2 µM, the LC50 (concentration giving 50% net cell kill relative to the time-zero cell count) is 95 µM and the IC (TGI) stood at 21 µM. Besides, in experiment [4], the GI50 was 2.6 µM. Further, in experiment [5], the “HDAC inhibition % (1 μM)” value stood at 90.0%, the “HDAC inhibition % (10 μM)” value was found to be 94.3% and the pIC50 was 7.22.

Consider `COc1ccc(/C=C(/C(=O)NCc2ccc(C(=O)Nc3ccccc3N)cc2)c2ccccc2)c(OC)c1` [Compound 39, N-(2-Aminophenyl)-4-((3-(2,4-dimethoxyphenyl)-2-phenylacrylamido)methyl)benzamide], for which, in experiment [1], the GI50 was found to be 3.2 µM, the LC50 was more than 100 µM and the IC (TGI) is more than 100 µM. For the same compound, in experiment [2], the GI50 turned out to be 0.7 µM, the CC50 was more than 100 µM and the IC (TGI) was 80 µM. Further, in experiment [3], the GI50 was 3.2 µM, the LC50 (concentration giving 50% net cell kill relative to the time-zero cell count) is more than 100 µM and the IC (TGI) came to 100 µM. In experiment [4], the 50% growth inhibitory concentration (GI50) turned out to be 2.4 µM. For the same compound, in experiment [5], the “HDAC inhibition % (1 μM)” value is 9.1% and the “HDAC inhibition % (10 μM)” value turned out to be 18.9%.

Turning to `COc1cc(/C=C(/C(=O)NCc2ccc(C(=O)Nc3ccccc3N)cc2)c2ccc(F)cc2)cc(OC)c1OC` [Compound 8, N-(2-Aminophenyl)-4-((3-(3,4,5-trimethoxyphenyl)-2-(4-fluorophenyl)acrylamido)methyl)benzamide], in experiment [1], the GI50 amounted to 89 µM, the LC50 is more than 100 µM and the IC (TGI) is more than 100 µM. Further, in experiment [2], the GI50 was found to be 24.5 µM, the CC50 was more than 100 µM and the IC (TGI) came to 82.5 µM. In experiment [3], the GI50 worked out at 67 µM, the LC50 (concentration giving 50% net cell kill relative to the time-zero cell count) is more than 100 µM and the IC (TGI) is 84.5 µM. The GI50 in experiment [4] was 60.2 µM. In experiment [5], the “HDAC inhibition % (1 μM)” value is 21.4% and the “HDAC inhibition % (10 μM)” value is listed as 26.4%.

Consider `CSc1ccc(/C=C(/C(=O)NCc2ccc(C(=O)Nc3ccccc3N)cc2)c2ccc(C)cc2)cc1` [Compound 25, N-(2-Aminophenyl)-4-((3-(4-methylthiophenyl)-2-(4-methylphenyl)acrylamido)methyl)benzamide], for which, in experiment [1], the concentration for 50% growth inhibition (GI50) turned out to be 19 µM, the LC50 amounted to 100 µM and the IC (TGI) is 58 µM. Besides, in experiment [2], the GI50 turned out to be 7.5 µM, the CC50 was determined as 90 µM and the IC (TGI) amounted to 48 µM. In experiment [3], the GI50 turned out to be 6.5 µM, the LC50 (concentration giving 50% net cell kill relative to the time-zero cell count) came out at 89 µM and the IC (TGI) amounted to 37 µM. Further, in experiment [4], the GI50 was 11 µM. For the same compound, in experiment [5], the “HDAC inhibition % (1 μM)” value came to 63.8% and the “HDAC inhibition % (10 μM)” value amounted to 68.1%.

Regarding `Nc1ccccc1NC(=O)c1ccc(CNC(=O)/C(=C/c2ccccc2)c2ccccc2)cc1` [Compound 12, N-(2-Aminophenyl)-4-((3-phenyl-2-phenylacrylamido)methyl)benzamide], in experiment [1], the GI50 came out at 32 µM, the LC50 came out at 87 µM and the IC (TGI) was found to be 60 µM. For the same compound, in experiment [2], the GI50 came to 5.2 µM, the CC50 was determined as 76.2 µM and the IC (TGI) came out at 37 µM. In experiment [3], the concentration for 50% growth inhibition (GI50) amounted to 18 µM, the LC50 (concentration giving 50% net cell kill relative to the time-zero cell count) was found to be 82 µM and the IC (TGI) worked out at 48.5 µM. In addition, the GI50 in experiment [4] is 18.4 µM. In experiment [5], the “HDAC inhibition % (1 μM)” value is reported as 13.6% and the “HDAC inhibition % (10 μM)” value came to 29.8%.

For `COc1ccc(/C=C(/C(=O)NCc2ccc(C(=O)NO)cc2)c2ccc(F)cc2)cc1` [Compound 53, 4-((2-(4-Fluorophenyl)-3-(4-methoxyphenyl)acrylamido)methyl)-N-hydroxybenzamide], in experiment [1], the GI50 is 5.5 µM, the LC50 stood at 49 µM and the IC (TGI) was 20 µM. Also, in experiment [2], the GI50 was 3 µM, the CC50 was 51 µM and the IC (TGI) was found to be 17 µM. For the same compound, in experiment [3], the GI50 was found to be 2.9 µM, the LC50 (concentration giving 50% net cell kill relative to the time-zero cell count) amounted to 30 µM and the IC (TGI) came to 7 µM. Further, in experiment [4], the GI50 was determined as 3.8 µM. Further, in experiment [5], the “HDAC inhibition % (1 μM)” value stood at 88.6%, the “HDAC inhibition % (10 μM)” value worked out at 94.4% and the negative-log IC50 (pIC50) is 7.40.

Regarding `CS(=O)(=O)c1ccc(/C=C(/C(=O)NCCCCCC(=O)Nc2ccccc2N)c2ccc(F)cc2)cc1` [Compound 97, N-(2-Aminophenyl)-6-(2-(4-fluorophenyl)-3-(4-methylsulfonyllphenyl)acrylamido)hexanamide], in experiment [1], the concentration for 50% growth inhibition (GI50) was 56 µM, the LC50 is more than 100 µM and the IC (TGI) is more than 100 µM. Besides, in experiment [2], the GI50 was determined as 6.8 µM, the CC50 is more than 100 µM and the IC (TGI) is 85 µM. Besides, in experiment [3], the GI50 came out at 6.5 µM, the LC50 (concentration giving 50% net cell kill relative to the time-zero cell count) turned out to be 87 µM and the IC (TGI) amounted to 44 µM. In addition, in experiment [4], the 50% growth inhibitory concentration (GI50) was determined as 23.1 µM. For the same compound, in experiment [5], the “HDAC inhibition % (1 μM)” value stood at 10.2% and the “HDAC inhibition % (10 μM)” value amounted to 34.2%.

On to `Nc1ccccc1NC(=O)c1ccc(CNC(=O)/C(=C/c2c(F)cc(F)cc2F)c2ccc(F)cc2)cc1` [Compound 13, N-(2-Aminophenyl)-4-((3-(2,4,6-trifluorophenyl)-2-(4-fluorophenyl)acrylamido)methyl)benzamide], for which, in experiment [1], the GI50 is 34 µM, the LC50 is 93 µM and the IC (TGI) turned out to be 66 µM. Also, in experiment [2], the GI50 came to 8.9 µM, the CC50 was found to be 90 µM and the IC (TGI) was determined as 50 µM. Besides, in experiment [3], the 50% growth inhibitory concentration (GI50) amounted to 3.4 µM, the LC50 (concentration giving 50% net cell kill relative to the time-zero cell count) stood at 48 µM and the IC (TGI) turned out to be 8 µM. Further, the GI50 in experiment [4] is 15.4 µM. In experiment [5], the “HDAC inhibition % (1 μM)” value is on record as 9.4% and the “HDAC inhibition % (10 μM)” value is reported as 18.2%.

The record behind these values is patent US8476255B2, “Histone deacetylase inhibitors” (Orchid Chemicals & Pharmaceuticals Limited, priority 2007, dated 2013).
